From paper PMC6521598, “Identification of GLPG/ABBV-2737, a Novel Class of Corrector, Which Exerts Functional Synergy With Other CFTR Modulators” (Frontiers in Pharmacology, 2019) come the findings set out here.

In assay [1] the target is T1, F508del CFTR (Homo sapiens, UniProt P13569, DEL508-508). Description: CSE-HRP assay (cell surface expression horseradish peroxidase assay). In kind it is cell-based. Further details: University of North Carolina; host or cells: primary human bronchial epithelial cells, F508del/F508del donors. The settings on record: 24 h treatment; for % F508del PM Expression vs control: VX809 rescue = 100%. The procedure: CFBE41o^- TetON cells expressing HRP tagged F508del-CFTR ([Veit et al., 2012]) were seeded at a density of 2000 cells per well in white 384-well plates (Greiner). Medium containing 500 ng/ml doxycycline was used to induce expression of the F508del-CFTR–HRP construct. After 3 days, cells were treated with corrector and/or potentiator compounds and transferred to an incubator at 33°C. On day 4, cells were washed five times with PBS containing Ca^2+ and Mg^2+ using a Bio-Tek plate washer and incubated with a chemiluminescent HRP substrate (SuperSignal West Pico Chemiluminescent Substrate, Thermo Scientific) for 15 min. Chemiluminescence was measured using an Envision plate reader (Perkin Elmer).
T1 sequence (P13569 with tags, fused parts or gaps DEL508-508): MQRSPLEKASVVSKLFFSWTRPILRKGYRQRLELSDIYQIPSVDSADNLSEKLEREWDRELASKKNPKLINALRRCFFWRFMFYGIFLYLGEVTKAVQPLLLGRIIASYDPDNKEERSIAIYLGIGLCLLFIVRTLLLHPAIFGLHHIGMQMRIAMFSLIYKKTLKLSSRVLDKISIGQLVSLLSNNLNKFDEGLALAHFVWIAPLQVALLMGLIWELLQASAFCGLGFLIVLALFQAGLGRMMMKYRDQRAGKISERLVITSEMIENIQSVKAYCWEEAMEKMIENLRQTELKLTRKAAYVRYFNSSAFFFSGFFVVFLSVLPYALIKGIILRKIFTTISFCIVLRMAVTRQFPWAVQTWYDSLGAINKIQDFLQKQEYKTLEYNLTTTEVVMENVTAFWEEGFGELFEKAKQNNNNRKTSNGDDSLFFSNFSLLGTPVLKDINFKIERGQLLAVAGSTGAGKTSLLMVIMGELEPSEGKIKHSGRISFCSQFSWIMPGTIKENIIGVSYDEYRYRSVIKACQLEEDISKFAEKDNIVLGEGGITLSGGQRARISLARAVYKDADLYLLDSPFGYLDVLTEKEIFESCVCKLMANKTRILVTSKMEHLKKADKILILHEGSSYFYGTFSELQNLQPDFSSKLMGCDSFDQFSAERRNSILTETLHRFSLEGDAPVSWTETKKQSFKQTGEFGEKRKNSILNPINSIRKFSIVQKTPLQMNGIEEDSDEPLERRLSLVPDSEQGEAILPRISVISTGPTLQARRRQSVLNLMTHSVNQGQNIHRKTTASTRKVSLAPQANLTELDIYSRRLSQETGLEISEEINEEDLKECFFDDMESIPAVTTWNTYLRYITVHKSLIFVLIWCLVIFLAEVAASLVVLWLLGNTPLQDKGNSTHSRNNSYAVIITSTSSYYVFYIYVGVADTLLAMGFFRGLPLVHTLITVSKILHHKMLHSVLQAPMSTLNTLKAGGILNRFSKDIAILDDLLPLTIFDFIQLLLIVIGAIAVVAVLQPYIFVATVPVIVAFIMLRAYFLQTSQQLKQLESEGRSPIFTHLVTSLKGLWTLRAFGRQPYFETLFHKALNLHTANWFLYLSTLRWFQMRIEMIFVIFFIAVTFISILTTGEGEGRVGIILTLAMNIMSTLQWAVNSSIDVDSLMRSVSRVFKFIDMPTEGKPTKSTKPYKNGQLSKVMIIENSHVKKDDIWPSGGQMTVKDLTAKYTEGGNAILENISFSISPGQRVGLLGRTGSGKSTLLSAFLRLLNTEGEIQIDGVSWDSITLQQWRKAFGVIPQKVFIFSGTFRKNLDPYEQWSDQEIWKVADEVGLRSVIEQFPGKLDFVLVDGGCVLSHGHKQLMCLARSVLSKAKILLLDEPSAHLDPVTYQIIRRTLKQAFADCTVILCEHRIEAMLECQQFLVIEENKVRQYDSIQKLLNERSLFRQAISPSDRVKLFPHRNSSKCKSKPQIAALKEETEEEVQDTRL
(§1) To discover novel correctors several high throughput screening campaigns were performed using cell based assays measuring plasma membrane expression of the F508del CFTR protein. The CSE-HRP system used CFBE41O-cells, a lung epithelial cell line, stably transfected with F508del CFTR tagged with HRP in the fourth extracellular loop ([Veit et al., 2014]). The CSE-MEM system, used U2OS cells, an osteosarcoma epithelial cell line, stably transfected with F508del CFTR tagged with a Pro-link moiety at the C-terminal and a plasma membrane located EA (enzyme acceptor) moiety. The latter cells were created by DiscoverX and the assay further optimized to allow robust evaluation in a high throughput manner.
For screening, cells were pre-incubated with compound for 24 h prior to read-out to allow sufficient time for de novo synthesis, and cellular trafficking of F508del-CFTR to reach steady state levels at the plasma membrane. A diverse set of 105,000 small molecules was screened in both cell assays in presence and absence of a fixed concentration (3 μM) of VX809. For the identification of suitable starting points we primarily focused on hits that increased the F508del CFTR surface expression under all conditions as exemplified by compound HIT1.

For assay [2], the target named is T1, F508del CFTR. Description: CSE-MEM assay (cell surface expression DiscoverX assay). In kind it is cell-based. On the set-up: University of North Carolina; host or cells: primary human bronchial epithelial cells, F508del/F508del donors. As to conditions: 24 h treatment; for % F508del PM Expression vs control: VX809 rescue = 100%. Here is the method:
Twenty-five microliters of cell plating reagent 5 (DiscoverX, 93-0563R5A) containing 5000 U2OS EA-MEM F508del_CFTR cells per well was added in white 384 well plates (Greiner, 781080) on day 1 and incubated overnight at 37°C, 5% CO2. On day 2, medium was refreshed and compounds (1 μl of 26 × concentrated solution) were added to the cells. All compounds used during the experiment were first dissolved in DMSO to a 10 mM solution which was then diluted to a 26 × solution in the medium just prior to the experiment. Cells were incubated with compounds for 20–24 h at 37°C, 5% CO2. On day 3, the plates were first incubated at room temperature for 1 h. After 1 h the plates were washed two times with PBS +/+ (Gibco, 14040-091) and 30 μL PBS +/+ (Gibco, 14040-091) was added after the last wash step. Then 15 μL of substrate (DiscoverX, 93-0247: 1 part Flash cell assay buffer + 4 parts Flash substrate) was added per well. After 1 h of incubation at room temperature in the dark, the luminescence signal was read on an EnVision plate reader (PerkinElmer).
as §1
For screening, cells were pre-incubated with compound for 24 h prior to read-out to allow sufficient time for de novo synthesis, and cellular trafficking of F508del-CFTR to reach steady state levels at the plasma membrane. […]

The structures appear in SMILES notation. pEC50: −log10 of the molar value.

`COC1CCN(C2CCN(c3cc(C(=O)NS(=O)(=O)N(C)C)nc4c3c(C3CCC3)nn4-c3ccc(F)cc3)CC2)CC1` [GLPG2737]: the “% F508del PM Expression vs control” value is given as 416% in assay [1] (+ 3 μM VX809), 264% in assay [1] (no co-corrector), 415% in assay [2] (+ 3 μM VX809) and 197% in assay [2] (no co-corrector). Moreover, the values for the pEC50 in assay [1] (no co-corrector) and in assay [2] (no co-corrector) were 6.09 and 6.15, respectively.
